Blank lines part the entries; values can stand above or below the molecule they belong to.
Experiments:
colon (Colo 205) cancer = settings: Colo 205 in SCID mice; cited from earlier work
[1] = test system: human gastric (SC-M1) cancer; settings: SC-M1 in SCID mice; cited from earlier work
[2] = test system: human colon cancer cells xenografts; settings: cited from earlier work
colon cancer cell lines = settings: NCI Anticancer Drug Screen; cited from earlier work
[3] = xenograft study; cited from earlier work
human colon cancer cells = settings: cited from earlier work

melting point: > 180 °C (dec.)
Molecule: Nc1ccc(Oc2ccccc2Oc2ccc(N)c(O)c2)cc1O [Example 10, 1,2-Bis(4-amino-3-hydroxyphenoxy)benzene]

Molecule: dimethyladamantylmaleimide [DMAMI]
apoptosis and tumor growth (colon (Colo 205) cancer): induce apoptosis and inhibit the growth

Molecule: O=C1C=CC(=O)N1C12CC3CC(CC(C3)C1)C2 [AMI, N-1-adamantylmaleimide]
apoptosis and tumor growth [1]: induce apoptosis and inhibit the growth

Molecule: 1,6-bis(4-(4-amino-3-hydroxyphenoxy)phenyl)diamantane [DPD]
in vivo anticancer activity [2]: has in vivo anticancer activity
anticancer activity on colon cancer cell lines (colon cancer cell lines): marked anticancer activities
acute toxicity [3]: no obvious acute toxicity
cell cycle arrest and differentiation (human colon cancer cells): induced G0/G1 arrest and differentiation

melting point: > 220 °C (dec.)
Molecule: Nc1ccc(Oc2ccc(Oc3ccc(N)c(O)c3)cc2)cc1O [Example 8, 1,4-Bis(4-amino-3-hydroxyphenoxy)benzene]

Source: patent publication US7365231B2, “Compound with antitumor activity and preparation method therefor” (National Taiwan University of Science & Technology, priority 2005, dated 2008)
